Measured values taken from patent publication US20240299376A1, “METHOD OF TREATING A CONDITION USING A […] EFFECTIVE DOSE OF 1-(1-OXO-1,2-DIHYDROISOQUINOLIN-5-YL)-5-(TRIFLUOROMETHYL)-N-(2-(TRIFLUOROMETHYL)PYRIDIN-4-YL)-1H-PYRAZOLE-4-CARBOXAMIDE” (Janssen Pharmaceutica NV, priority 2021, published 2024).
Read-outs that look alike come from different tables or passages of the source.

Assay: 14-day oral toxicity study toxicokinetics in Sprague-Dawley rats
Type: in vivo
Conditions: rat, plasma; for Cmax / AUC(0-t): mean; for AUC(0-t): read-out: AUC0-24 h; for Tmax: range
Procedure: Repeated-dose PK (toxicokinetics) were obtained as part of the repeated oral dose toleration toxicity studies in rats and dogs.
There was no further increase in the daily exposure parameters at 1,000 mg/kg relative to those from 200 mg/kg/day. There was no effect of gender on exposure and there was no increase in daily exposure parameters on Day 14 relative to those observed after the first dose.

[1] = female, 30 mg/kg/day, female, Day 0, 30 mg/kg/day
[2] = female, 30 mg/kg/day, female, Day 13, 30 mg/kg/day
[3] = female, 200 mg/kg/day, female, Day 0, 200 mg/kg/day
[4] = female, 200 mg/kg/day, female, Day 13, 200 mg/kg/day
[5] = female, 1000 mg/kg/day, female, Day 0, 1,000 mg/kg/day
[6] = female, 1000 mg/kg/day, female, Day 13, 1,000 mg/kg/day
[7] = male, 30 mg/kg/day, male, Day 0, 30 mg/kg/day
[8] = male, 30 mg/kg/day, male, Day 13, 30 mg/kg/day
[9] = male, 200 mg/kg/day, male, Day 0, 200 mg/kg/day
[10] = male, 200 mg/kg/day, male, Day 13, 200 mg/kg/day
[11] = male, 1000 mg/kg/day, male (4M), Day 13, 1,000 mg/kg/day
[12] = male, 1000 mg/kg/day, male, Day 0, 1,000 mg/kg/day

With O=C(Nc1ccnc(C(F)(F)F)c1)c1cnn(-c2cccc3c(=O)[nH]ccc23)c1C(F)(F)F [Compound A, 1-(1-oxo-1,2-dihydroisoquinolin-5-yl)-5-(trifluoromethyl)-N-[2-(trifluoromethyl)pyridin-4-yl]-1H-pyrazole-4-carboxamide] the Cmax [1] was 27.1 µg/mL, the AUC(0-t) [1] was 366 µg·h/mL and the Tmax [1] was 1 to 7 h. For the same compound, the Cmax [2] was 33.4 µg/mL, the AUC(0-t) [2] was 451 µg·h/mL and the Tmax [2] was 2 to 4 h. It also gave a Cmax [3] of 93.1 µg/mL, an AUC(0-t) [3] of 93.1 µg·h/mL and a Cmax [4] of 96.1 µg/mL. The AUC(0-t) [4] was 1300 µg·h/mL, the Tmax [4] was 2 to 7 h and the Cmax [5] was 83.2 µg/mL. It also gave an AUC(0-t) [5] of 1140 µg·h/mL, a Tmax [5] of 2 to 4 h and a Cmax [6] of 83.2 µg/mL. For the same compound, the AUC(0-t) [6] was 83.2 µg·h/mL, the Cmax (male, 30 mg/kg/day, male, Day 0 (first day of dosing), 30 mg/kg/day) was 24.4 µg/mL and the AUC(0-t) [7] was 247 µg·h/mL. It also gave a Tmax [7] of 2 to 4 h, a Cmax [8] of 26.7 µg/mL and an AUC(0-t) [8] of 305 µg·h/mL. The Tmax [8] was 2 h, the Cmax [9] was 96.7 µg/mL and the AUC(0-t) [9] was 1410 µg·h/mL. It also gave a Tmax [9] of 7 to 9 h, a Cmax [10] of 63.9 µg/mL and an AUC(0-t) [10] of 803 µg·h/mL. The Tmax [10] was 2 to 7 h, the Cmax [11] was 83.2 µg/mL and the AUC(0-t) [11] was 898 µg·h/mL. It also gave a Tmax [11] of 2 to 4 h, a Cmax [12] of 90.8 µg/mL and an AUC(0-t) [12] of 1120 µg·h/mL. For the same compound, the Tmax [12] was 2 to 9 h.
